Results: US5672603A, “Apoptosis regulating composition” (Otsuka Pharmaceutical Co., Ltd., priority 1991, dated 1997)
Numbered stars: 1 amine (or outer) side, 2 acyl side, 3 side chain; on linkers, the order of the positions; unused ones are H or OH. Bridge positions count the residues as written; N and C are the ends. Square brackets hold non-standard residues; d marks the D form. Peptide text beside a SMILES is read from it. I, II: the chains in the order shown. Actinocin(9to1) = Cc1c2oc3c(C)ccc(C(=O)[*:1])c3nc-2c(C(=O)[*:2])c(N)c1=O; NMeV = CN[C@H](C(=O)O)C(C)C; Sar = CNCC(=O)O

Assays:
[1] = test system: apoptosis; details: literature; cited from earlier work
[2] = test system: HL-60 cells; assay: Induction of differentiation of HL-60 cells (CD11b expression, flow cytometry); type: cell-based, human; set-up: reference not given here; details: 30 μg/ml; 3 days; CD11b fluorescence
Procedure: (§1) HL-60 cells were cultivated in RPMI-1640 medium supplemented with 10% of FCS at 37° C. under 5% CO2, and the cell concentration was adjusted to 5×10^4 cells/ml.
(§2) Then, the above-mentioned medium containing 30 μg/ml of each test compound was added to each well of 6-well microplates (Costar), followed by 3 days of incubation at 37° C. under 5% CO2. In a control group, the above medium alone was added and incubation was performed in the same manner. Thereafter, each cultured cell suspension was sampled into an Eppendorf tube and, after staining with 0.2% trypan blue-containing phosphate buffer, viable cells were counted using a hematocytometer.
The above cells were adjusted to 1×10^7 cells/ml. To 100 μl of the cell suspension was added 5 μl of a solution of fluorescein isothiocyanate (FITC)-labeled anti-human CD11b antibody (Mol; Coulter) and the reaction was allowed to proceed on ice in the dark for 30 minutes. Then, cells were washed twice with PBS (phosphate-buffered saline; Nissui Pharmaceutical) containing 0.1% of BSA (bovine serum albumin; Sigma), finally suspended in 500 μl of the BSA-containing PBS and measured for fluorescence intensity by flow cytometry using Profile II (Coulter).

[3] = test system: HL-60 cells; assay: HL-60 cell growth inhibition, 3 days; type: cell-based; details: Homo sapiens, HL-60, 72 h, 30 μg/ml, read-out: Cell growth inhibiting effect (%)
Procedure: as §1, §2

[4] = test system: HL-60 cells; details: literature; cited from earlier work
[5] = test system: acute leukemia cells; details: literature; cited from earlier work
[6] = test system: lymphocytic tumor cells; details: X-ray radiation; literature; cited from earlier work
[7] = test system: small intestine crypt cells; details: literature; cited from earlier work
[8] = test system: nerve cells; details: administration in advance; literature; cited from earlier work
[9] = test system: aged rats with learning disorder; details: literature; cited from earlier work
[10] = test system: PC12 cells; assay: Effect on PC12 cells (morphology, phase contrast microscope); details: NGF alone group, 0.3% FCS
Procedure: PC12 cells subcultured in Dulbecco's modified Eagle's medium (D-MEM) supplemented with 5% heat-inactivated (56° C., 30 minutes) horse serum and 10% fetal calf serum (FCS) were transferred onto collagen-coatedplastic Petri dishes (35 mm in diameter) at a concentration of 6×10^4 cells/3 ml medium.

[11] = test system: sympathetic nerve cells; details: literature; cited from earlier work

bcl-2 gene product: bcl-2 gene product
Repression of apoptosis [1]: repress apoptosis

CCOc1ccc(C(=O)N2CCN(c3ccc4c(c3)CCC(=O)N4)CC2)cc1 [Compound 5, 6-[4-(4-Ethoxybenzoyl)-1-piperazinyl]-3,4-dihydrocarbostyril]
Induction of differentiation promoting effect [2]: 232

COc1cc(C(=O)N2CCN(c3ccc4c(c3)CCC(=O)N4)CC2)cc(OC)c1OC [Compound 2, 6-[4-(3,4,5-Trimethoxybenzoyl)-1-piperazinyl]-3,4-dihydrocarbostyril]
inhibition at 30 µg/mL [3]: 20.2%

C[C@@H]1C[C@@H]([C@H](O)CC2CC(=O)NC(=O)C2)C(=O)[C@@H](C)C1 [cycloheximide]
Apoptosis induction in HL-60 cells [4]: apoptosis induction | Apoptosis induction in acute leukemia cells [5]: apoptosis induction | Apoptosis of lymphocytic tumor cells [6]: suppresses | Repression of apoptosis [1]: capable of repressing apoptosis

COc1ccc(C(=O)N2CCN(c3cccc4c3CCC(=O)N4)CC2)cc1OC [Compound 6, 5-[4-(3,4-Dimethoxybenzoyl)-1-piperazinyl]-3,4-dihydrocarbostyril]
Induction of differentiation promoting effect [2]: 303

COc1cc(C(=O)N2CCN(c3ccc4c(c3)NC(=O)CC4)CC2)cc(OC)c1OC [Compound 3, 7-[4-(3,4,5-Trimethoxybenzoyl)-1-piperazinyl]-3,4-dihydrocarbostyril]
Induction of differentiation promoting effect [2]: 384

Cc1c2oc3c(C)ccc(C(=O)N[C@@H]4C(=O)N[C@H](C(C)C)C(=O)N5CCC[C@H]5C(=O)N(C)CC(=O)N(C)[C@@H](C(C)C)C(=O)O[C@@H]4C)c3nc-2c(C(=O)N[C@@H]2C(=O)N[C@H](C(C)C)C(=O)N3CCC[C@H]3C(=O)N(C)CC(=O)N(C)[C@@H](C(C)C)C(=O)O[C@@H]2C)c(N)c1=O [actinomycin D] (I: T[dV]P[Sar][NMeV] / II: T[dV]P[Sar][NMeV]; ester I:1-I:C, II:1-II:C; linker I:N-II:N via Actinocin(9to1))
Apoptosis induction in small intestine crypt cells [7]: apoptosis induction | Apoptosis induction in HL-60 cells [4]: apoptosis induction | Apoptosis of lymphocytic tumor cells [6]: potentiates | Repression of apoptosis [1]: capable of repressing apoptosis

GM-CSF: granulocyte macrophage colony stimulating factor
Repression of apoptosis [1]: repress apoptosis

COc1ccc(C(=O)N2CCN(c3ccc4[nH]c(=O)ccc4c3)CC2)cc1OC [Compound 7, 6-[4-(3,4-Dimethoxybenzoyl)-1-piperazinyl]carbostyril]
inhibition at 30 µg/mL [3]: 24.1% | Induction of differentiation promoting effect [2]: 898

COc1ccc(C(=O)N2CCN(c3cccc4c3NC(=O)CC4)CC2)cc1OC [Compound 8, 8-[4-(3,4-Dimethoxybenzoyl)-1-piperazinyl]-3,4-dihydrocarbostyril]
inhibition at 30 µg/mL [3]: 24.9% | Induction of differentiation promoting effect [2]: 344

NGF: nerve growth factor (NGF, Wako Pure Chemical)
Nerve cell death in development stage [8]: complete inhibition of nerve cell death | Recovery from learning disorder [9]: can recover from learning disorder | Formation of nerve-like processes, NGF stimulation [10]: formation of nerve-like processes | Programmed death of sympathetic nerve cells [11]: can inhibit programmed death of sympathetic nerve cells

COc1ccc(C(=O)N2CCN(c3ccc4c(c3)NC(=O)CC4)CC2)cc1OC [Compound 4, 7-[4-(3,4-Dimethoxybenzoyl)-1-piperazinyl]-3,4-dihydrocarbostyril]
Induction of differentiation promoting effect [2]: 383

B1: G-CSF: granulocyte colony stimulating factor (protein, UniProt P09919 31-207, looked up)
Granulocyte …: TPLGPASSLPQSFLLKCLEQVRKIQGDGAALQEKLVSECATYKLCHPEELVLLGHSLGIPWAPLSSCPSQALQLAGCLSQLHSGLFLYQGLLQALEGISPELGPTLDTLQLDVADFATTIWQQMEELGMAPALQPTQGAMPAFASAFQRRAGGVLVASHLQSFLEVSYRVLRHLAQP
Repression of apoptosis [1]: repress apoptosis

B2: lymphotoxin (LT): lymphotoxin (LT) (protein, UniProt P01374 35-205, looked up)
Lymphotoxin-alpha: LPGVGLTPSAAQTARQHPKMHLAHSTLKPAAHLIGDPSKQNSLLWRANTDRAFLQDGFSLSNNSLLVPTSGIYFVYSQVVFSGKAYSPKATSSPLYLAHEVQLFSSQYPFHVPLLSSQKMVYPGLQEPWLHSMYHGAAFQLTQGDQLSTHTDGIPHLVLSPSTVFFGAFAL
Induction of apoptosis [1]: induced
